From ChEMBL document CHEMBL1201862, “PubChem BioAssay data set” (2004)
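These data come from cells grown in 96-well plates and exposed to compound for 48 hours at five concentrations. Here, GI50 denotes the concentration required for 50% inhibition of growth.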 The source made the active and inactive calls. No stated cut-off is given here; in the data, active = GI50 up to about 1.1 µM and inactive = higher.

Legend:
Experiment in all cases: inhibition of tumour cell growth, NCI panel, 48 h
HOP-92 = test system: HOP-92
RXF 393 = test system: RXF 393
M19-MEL = test system: M19-MEL
SF-295 = test system: SF-295
IGROV-1 = test system: IGROV-1
A498 = test system: A498
SF-539 = test system: SF-539
HOP-18 = test system: HOP-18
M14 = test system: M14
KM12 = test system: KM12
HL-60 = test system: HL-60
UACC-257 = test system: UACC-257
EKVX = test system: EKVX
CAKI-1 = test system: CAKI-1
NCI/ADR-RES = test system: NCI/ADR-RES

| Compound | GI50 (HOP-92) | GI50 (RXF 393) | GI50 (M19-MEL) | GI50 (SF-295) | GI50 (IGROV-1) | GI50 (A498) | GI50 (SF-539) | GI50 (HOP-18) | GI50 (M14) | GI50 (KM12) | GI50 (HL-60) | GI50 (UACC-257) | GI50 (EKVX) | GI50 (CAKI-1) | GI50 (NCI/ADR-RES) |
| --- | --- | --- | --- | --- | --- | --- | --- | --- | --- | --- | --- | --- | --- | --- | --- |
| COC[C@@H](Cc1ccc(OC)c(OC)c1)[C@@H](COC)Cc1ccc(OC)c(OC)c1 | 57.9 µM (inactive) | > 100 µM (inactive) | > 100 µM (inactive) | > 100 µM (inactive) | > 100 µM (inactive) | > 100 µM (inactive) | > 100 µM (inactive) | > 100 µM (inactive) | > 100 µM (inactive) | > 100 µM (inactive) | > 100 µM (inactive) | > 100 µM (inactive) | > 100 µM (inactive) | – | – |
| O=C(NNC(=O)c1nsc2ccccc12)c1ccc(Cl)cc1 | 17.1 µM (inactive) | 14 µM (inactive) | 20 µM (inactive) | – | 34.5 µM (inactive) | – | 17 µM (inactive) | 10.2 µM (inactive) | 19.5 µM (inactive) | 27.2 µM (inactive) | 23.7 µM (inactive) | 21.2 µM (inactive) | 18.2 µM (inactive) | – | – |
| CN(C)/N=N/c1ccc([N+](=O)[O-])cc1C(N)=O | > 100 µM (inactive) | > 100 µM (inactive) | > 100 µM (inactive) | > 100 µM (inactive) | > 100 µM (inactive) | > 80.9 µM (inactive) | > 100 µM (inactive) | > 100 µM (inactive) | – | > 100 µM (inactive) | – | > 100 µM (inactive) | > 71.3 µM (inactive) | > 100 µM (inactive) | > 100 µM (inactive) |
| Nc1nnc(CCC(=O)Nc2cc(Cl)ccc2Cl)n1N | > 100 µM (inactive) | > 100 µM (inactive) | > 100 µM (inactive) | > 100 µM (inactive) | > 100 µM (inactive) | > 100 µM (inactive) | > 100 µM (inactive) | > 100 µM (inactive) | > 100 µM (inactive) | > 100 µM (inactive) | > 100 µM (inactive) | > 100 µM (inactive) | > 100 µM (inactive) | > 100 µM (inactive) | – |
| COc1cccc(C2C(C(=O)O)=C(CO)Oc3cc4c(cc32)OCO4)c1 (stereo unspecified) | > 100 µM (inactive) | – | > 100 µM (inactive) | > 100 µM (inactive) | > 100 µM (inactive) | > 100 µM (inactive) | > 100 µM (inactive) | > 100 µM (inactive) | > 100 µM (inactive) | – | > 100 µM (inactive) | – | > 100 µM (inactive) | > 100 µM (inactive) | – |
| C=COCCCOc1ccccc1 | – | > 100 µM (inactive) | > 100 µM (inactive) | – | 0.145 µM (active) | – | > 100 µM (inactive) | 1.53 µM (inactive) | > 100 µM (inactive) | > 100 µM (inactive) | > 100 µM (inactive) | – | > 100 µM (inactive) | > 100 µM (inactive) | – |
| C=C1C(=O)O[C@@H]2[C@H]3O[C@]3(C)CCC=C(C)CC[C@@H]12 | 13.6 µM (inactive) | 12.2 µM (inactive) | 14.3 µM (inactive) | 24.8 µM (inactive) | 21.1 µM (inactive) | 7.05 µM (inactive) | 19 µM (inactive) | 14.9 µM (inactive) | – | 16.8 µM (inactive) | 4.69 µM (inactive) | 14.9 µM (inactive) | 17.4 µM (inactive) | 9.31 µM (inactive) | 15 µM (inactive) |
